# According to patent US12065470B2, “Zinc-charged peptides for the treatment of cancer and alzheimer's disease” (priority 2022, dated 2024):
# Starred links: 1 amine or outer side, 2 acyl side, 3 side chain; linkers in the order of their positions; H or OH if unused. Positions of bridges follow the written chain, without caps; N, C: chain ends. Non-standard residues stand in square brackets, D forms with d. Residues, ends and D or L forms follow the SMILES beside them. Chains are numbered I, II in the order given. No end group written: not given here. Actinocin(9to1) = Cc1c2oc3c(C)ccc(C(=O)[*:1])c3nc-2c(C(=O)[*:2])c(N)c1=O; NMeV = CN[C@H](C(=O)O)C(C)C; Sar = CNCC(=O)O
# How the values were obtained:
# HT-29 colon cancer cells [1] = experiment: Combination with chemotherapy drugs, apoptosis in HT-29; assay type: cell-based; conditions: for interaction of chemotherapy drug with zinc-charged peptide (apoptosis): drug 6 μg per ml 12 hours, then zinc-charged 4H 4 μM for 6 hours, HT-29
# Procedure: To test this, HT-29 colon cancer cells were pre-incubated with various chemotherapy drugs at 6 μg per ml for 12 hours, then zinc-charged 4H at 4 μM was added for an additional 6 hours. Most chemotherapy drugs take up to 48 hours to see substantial apoptosis, and as such, the cells were pre-incubated with chemotherapy drugs first. The chemotherapy drugs tested included actinomycin (“A”), carmustine (“C”), docorubicin (“Dox”), genistin (“G”), 5-FU, and Tarceva.
# [2] = Absorption by gastrointestinal tract (earlier work); conditions: before digestion with papain
# Source text: (§1) Since alpha-lactalbumin is the major milk protein present in milk, this protein was first tested to determine if the bioactive peptides were derived from alpha-Lactalbumin. Purified alpha-lactalbumin was therefore treated with EDTA and zinc acetate.
# [3] = tested on: various cancer cell lines; experiment: Apoptosis-inducing activity on various cancer cell lines (earlier work); assay type: cell-based
# Source text: Cow milk is known to contain numerous proteins and other beneficial compounds for humans.
# as §1
# normal WI38 lung cells = experiment: Glycolysis (lactate) in WI38 cell lysate; assay type: cell-based; conditions: WI38, FIG. 8b
# Procedure: (§2) FIG. 8b is a bar graph depicting the level of glycolysis end product lactate in Calu-1 lung cancer cell lysate and of normal WI38 lung cell lysate after incubation with zinc-charged peptide 4H compared to a control of unincubated Calu-1 lung cancer cell lysate and unincubated normal WI38 lung cell lysate.
# (§3) The zinc-charged peptides ability to inhibit glycolysis in other cancer cell lines, such as lung cancer, compared to their normal counterparts was also tested. […] To further study this observed phenomena in vivo, normal mice were fed with the zinc-charged 4H for five days, and the glycolysis of normal brain cells were studied. FIG. 9 depicts the results of this study. For this study, two groups of mice having four mice per group were compared, one being the control and the other being fed 0.5 mg of zinc-charged 4H per mouse per day for 5 days orally. After 5 days, brain and muscle tissue was collected, homogenized, and assayed for glycolysis rate.
# brain ATP = experiment: Brain ATP level in mice after oral dosing; assay type: in vivo; conditions: 4H 0.5 mg per mouse per day, 5 days, normal mice
# Procedure: FIG. 10 is a bar graph depicting the brain ATP level of normal mice after the mice were orally administered the zinc-charged peptide (4H, 0.5 mg/mouse) for five days compared to a control.
# FIG. 11a is a bar graph depicting the brain ATP level of mice after the mice were orally administered the zinc-charged peptide (4H3, 1 mg/mouse) for five days compared to a control.
# (§4) In mice fed with 0.5 mg of zinc-charged 4H for 5 days, the brain glycolysis of these mice was enhanced by 44%.
# FIGS. 11a-d provide the graphical representations of these observations. FIG. 11a depicts the level of brain ATP in mice that were orally administered zinc-charged 4H3 compared to mice who were given the control. […] FIG. 11b depicts the level of brain Tau protein ATP in mice that were orally administered zinc-charged 4H3 compared to mice who were given the control. In this test, a 2.7 μg protein load was utilized. […] FIG. 11c depicts a retest of FIG. 11b, but with a lower protein load utilized instead. […] Lastly, FIG. 11d depicts the brain P38 MAPK levels in mice that were orally administered zinc-charged 4H3 compared to mice who were given the control. In this test, the mice given the zinc-charged 4H3 saw their brain P38 MAPK levels decrease by 61%.
# [4] = tested on: normal colon cell line CCD18Co; experiment: Glycolysis (lactate) in CCD18Co cell lysate; assay type: cell-based; conditions: FIG. 8a
# Procedure: as §2, with “FIG. 8a” for “FIG. 8b”, “in HT-29 colon” for “in Calu-1 lung”, “normal CCD18Co colon” for “normal WI38 lung”, “unincubated HT-29” for “unincubated Calu-1 lung”
# as §3
# hexokinase II [5] = molecular target: T1, hexokinase II (Homo sapiens, UniProt P52789); experiment: In vitro hexokinase II assay; assay type: biochemical
# T1 sequence (P52789 1-917): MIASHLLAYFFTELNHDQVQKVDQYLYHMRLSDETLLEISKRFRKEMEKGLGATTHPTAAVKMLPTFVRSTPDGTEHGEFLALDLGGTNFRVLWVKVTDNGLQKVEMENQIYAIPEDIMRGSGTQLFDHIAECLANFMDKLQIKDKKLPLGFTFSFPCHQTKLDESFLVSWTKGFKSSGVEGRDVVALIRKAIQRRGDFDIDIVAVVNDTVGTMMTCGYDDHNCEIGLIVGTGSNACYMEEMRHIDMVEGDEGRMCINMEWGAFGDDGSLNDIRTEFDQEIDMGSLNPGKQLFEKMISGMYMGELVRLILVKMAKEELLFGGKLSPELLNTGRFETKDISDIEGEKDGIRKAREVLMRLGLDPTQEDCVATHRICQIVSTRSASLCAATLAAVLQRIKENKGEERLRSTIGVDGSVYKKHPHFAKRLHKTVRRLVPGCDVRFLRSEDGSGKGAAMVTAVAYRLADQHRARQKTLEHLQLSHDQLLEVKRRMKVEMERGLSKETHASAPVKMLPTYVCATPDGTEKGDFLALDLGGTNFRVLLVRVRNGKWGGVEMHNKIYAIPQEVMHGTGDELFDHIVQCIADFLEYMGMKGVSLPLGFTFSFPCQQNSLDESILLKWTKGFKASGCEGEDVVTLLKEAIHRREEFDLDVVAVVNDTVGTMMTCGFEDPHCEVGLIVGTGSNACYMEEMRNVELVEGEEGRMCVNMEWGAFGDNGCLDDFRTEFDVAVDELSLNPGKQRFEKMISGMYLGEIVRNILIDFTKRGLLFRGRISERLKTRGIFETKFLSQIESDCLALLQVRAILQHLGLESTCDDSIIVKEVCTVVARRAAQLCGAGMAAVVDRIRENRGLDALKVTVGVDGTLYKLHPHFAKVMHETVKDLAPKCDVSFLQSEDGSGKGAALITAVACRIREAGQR
# Procedure: To test confirm that the zinc-charged peptides inhibit hexokinase II resulting in the inhibition of glycolysis, an in vitro hexokinase II assay was performed. FIG. 7 depicts the results of the in vitro hexokinase II assay. In this test, it was observed that hexokinase II was inhibited by zinc-charged 4H in a dose-dependent manner. […] These findings confirm that the zinc-charged peptides inhibit glycolysis at the hexokinase II enzyme level.
# HT-29 cancer cells = experiment: Intracellular glucose-6-phosphate in HT-29; assay type: cell-based; conditions: HT-29, 6 hours of incubation
# Procedure: FIG. 6 is a bar graph depicting the level of intracellular Glucose-6-phosphate in HT-29 cancer cells after being incubated with the zinc-charged peptide 4H compared with a control.
# (§5) To determine the mechanism of induction of apoptosis to HT-29 cancer cells by the zinc-charged peptides, a low concentration (1 μM) of zinc-charged 4H was incubated with HT-29 cancer cells, followed by biochemical analysis of the cell lysate of the HT-29 cancer cells.
# (§6) Furthermore, the decreased lactate was associated with a lower ATP level and a lower Glucose-6-phosphate (G-6-P) level in HT-29 cells.
# Calu-1 lung cancer cells = experiment: Glycolysis (lactate) in Calu-1 cell lysate; assay type: cell-based; conditions: Calu-1, FIG. 8b
# Procedure: as §2, §3
# brain tissue glycolysis = experiment: Brain glycolysis in normal mice after oral dosing; assay type: in vivo; conditions: 0.5 mg per mouse per day, 5 days
# Procedure: FIG. 9a is a bar graph depicting the level of glycolysis in the brain tissue of normal mice (N=4) after the mice were orally administered the zinc-charged peptide (4H, 0.5 mg/mouse) for five days compared to a control.
# as §3, §4
# muscle tissue glycolysis = experiment: Muscle glycolysis in normal mice after oral dosing; assay type: in vivo; conditions: 0.5 mg per mouse per day, 5 days
# Procedure: FIG. 9b is a bar graph depicting the level of glycolysis in the muscle tissue of normal mice after the mice were orally administered the zinc-charged peptide (4H, 0.5 mg/mouse) for five days compared to a control.
# as §3, §4
# HT-29 colon cancer cells [6] = experiment: Glycolysis (lactate) in HT-29 cell lysate; assay type: cell-based
# Procedure: as §5, §6, §3
# hexokinase II [7] = molecular target: T1, hexokinase II; experiment: Subcellular hexokinase II activity in HT-29; assay type: cell-based; conditions: HT-29, 1 μM, 5 hours
# Procedure: FIG. 14 is a bar graph depicting the subcellular hexokinase II activity in mitochondria, cytosol, and microsome of HT-29 cells incubated with the zinc-charged peptide (4H, 1 μM, for 5 hours) compared to a control of only the vehicle.
# FIGS. 14-16 depicts the testing results validating that the zinc-charged peptides inhibit each of these three bioenergetic pathways. FIG. 14 depicts the subcellular hexokinase II activity in mitochondria, cytosol, and microsome to determine whether the zinc-charged peptides inhibit the hexokinase II activity in mitochondria. For this test, HT-29 cancer cells were incubated with zinc-charged 4H at 1 μM for 5 hours. After incubation, sub-cellular fractions including cytosol, microsome, and mitochondria were prepared and the hexokinase II activity on these sub-cellular fractions were tested.
# [8] = Water solubility of the peptide; assay type: physicochemical; conditions: uncharged peptide
# Source text: The first peptide, listed as SEQ. ID NO. 1 in the accompanying sequence listing, has an amino acid sequence of E-Y-G-L-F-Q-I-S-N-K-L. This peptide, which is derived from natural human alpha-lactalbumin, will be referred to herein as “4H.” The second peptide, listed as SEQ. ID NO. […] This peptide has an amino acid sequence of E-Y-G-L-F-Q-I-S-N-K-K and will be referred to herein as “4H3.” Both these peptides were charged with zinc ions using the disclosed method to activate their apoptotic activities. Further, once these two peptides were charged with zinc ions, additional effects such as reducing Tau protein, increasing brain ATP levels and inhibiting P38 in the brain were observed, showing that these zinc-charged peptides further have a role in treating diseases involving tauopathy, such as Alzheimer's Disease and Parkinson's Disease.
# Disclosed herein are two zinc-charged chemically synthesized peptides based upon the alpha-lactalbumin that are able to treat cancer and diseases involving tauopathy once activated by the disclosed method of charging the peptides with zinc ions. The first peptide, 4H, has an amino acid sequence of E-Y-G-L-F-Q-I-S-N-K-L (Seq. No. 1). The second peptide, 4H3, has an amino acid sequence of E-Y-G-L-F-Q-I-S-N-K-K (Seq. No. 2). […]
compound,measurement,setting,value
"Cc1c2oc3c(C)ccc(C(=O)N[C@@H]4C(=O)N[C@H](C(C)C)C(=O)N5CCC[C@H]5C(=O)N(C)CC(=O)N(C)[C@@H](C(C)C)C(=O)O[C@@H]4C)c3nc-2c(C(=O)N[C@@H]2C(=O)N[C@H](C(C)C)C(=O)N3CCC[C@H]3C(=O)N(C)CC(=O)N(C)[C@@H](C(C)C)C(=O)O[C@@H]2C)c(N)c1=O [actinomycin] (I: T[dV]P[Sar][NMeV] / II: T[dV]P[Sar][NMeV]; ester I:1-I:C, II:1-II:C; linker I:N-II:N via Actinocin(9to1))",interaction of chemotherapy drug with zinc-charged peptide (apoptosis),HT-29 colon cancer cells [1],synergistic
O=c1[nH]cc(F)c(=O)[nH]1 [5-FU],interaction of chemotherapy drug with zinc-charged peptide (apoptosis),HT-29 colon cancer cells [1],synergistic
COc1cccc2c1C(=O)c1c(O)c3c(c(O)c1C2=O)C[C@@](O)(C(=O)CO)C[C@@H]3O[C@H]1C[C@H](N)[C@H](O)[C@H](C)O1 [doxorubicin],interaction of chemotherapy drug with zinc-charged peptide (apoptosis),HT-29 colon cancer cells [1],synergistic
O=NN(CCCl)C(=O)NCCCl [carmustine],interaction of chemotherapy drug with zinc-charged peptide (apoptosis),HT-29 colon cancer cells [1],synergistic
zinc-bound alpha-lactalbumin: purified alpha-lactalbumin treated with EDTA and zinc acetate,absorption by gastrointestinal tract,[2],unable to be absorbed
same,apoptosis-inducing activity,[3],contain apoptosis-inducing activity
"E-Y-G-L-F-Q-I-S-N-K-L (EYGLFQISNKL; also: charged with zinc ions) [zinc-charged 4H, ID NO; 1 peptide derived from human alpha-lactalbumin, charged with zinc ions]",glycolysis inhibition,normal WI38 lung cells,0%
same,increase in brain ATP level,brain ATP,31.4%
same,glycolysis inhibited,[4],10.5%
same,hexokinase II inhibited,hexokinase II [5]; 5 μM,28.6%
same,hexokinase II inhibited,hexokinase II [5]; 10 μM,79.1%
same,hexokinase II inhibited,hexokinase II [5]; 20 µM,94.6%
same,reduction of intracellular G-6-P level,HT-29 cancer cells,39.6%
same,glycolysis inhibited,Calu-1 lung cancer cells,11.1%
same,brain glycolysis enhanced,brain tissue glycolysis,44%
same,percentage of apoptosis in HT-29 after adding zinc-charged 4H to chemotherapy drugs,HT-29 colon cancer cells [1]; 4 μM for 6 hours after 12 hours drug pre-incubation,significantly increased
same,muscle glycolysis increased,muscle tissue glycolysis,15%
same,lactate lower than control cells,"HT-29 colon cancer cells [6]; 1 μM, HT-29 lysate, FIG. 4",81.4%
same,glycolysis inhibited,"HT-29 colon cancer cells [6]; HT-29, FIG. 8a",up to 34.7%
same,mitochondria associated hexokinase II activity inhibited,hexokinase II [7],53%
O=c1c(-c2ccc(O)cc2)coc2cc(O[C@@H]3O[C@H](CO)[C@@H](O)[C@H](O)[C@H]3O)cc(O)c12 [genistin],interaction of chemotherapy drug with zinc-charged peptide (apoptosis),HT-29 colon cancer cells [1],synergistic
"EYGLFQISNKK [4H3, E-Y-G-L-F-Q-I-S-N-K-K]",water solubility compared with 4H,[8],more water-soluble
